Values quoted from earlier work in patent publication US6972133B1, “Degradable animal chewing article possessing enhanced safety, durability and mouth-feel” (Seefar Technologies, Inc., priority 1999, dated 2005).

What was measured:
[1] = test system: dogs
[2] = test system: fungi (including yeast) and algae; details: most active against fungi (including yeast) and algae

Oc1cc(Cl)ccc1Oc1ccc(Cl)cc1Cl [triclosan, 2,4,4″-trichloro-2-hydroxydiphenylether]
solubility in dilute alkali solution (dilute alkali solution): sparingly soluble | solubility in ethanol (ethanol): soluble | solubility in water (water, unmodified triclosan): insoluble | LD50 oral toxicity [1]: > 5000 mg/kg

Cc1ccc(S(=O)(=O)C(I)I)cc1 [DIMTS, diiodomethyl-p-tolylsulphone]
anti-microbial activity [2]: broad spectrum of anti-microbial activity
